Like-named read-outs stand apart in the source and are kept apart here.
Tests used:
HEK 293 cells = experiment: toxicity assay on HEK 293 cells (Alamar Blue); settings: for toxicity to HEK 293 cells at the highest concentration tested: highest tested concentration 100 or 200 µg/mL (1: 300 µM; 4: 140 µM; 5: 427 µM); for EC50: read-out: HEK 293 EC50, average ± SEM
T. evansi (AnTat 3/3) = experiment: resazurin drug sensitivity assay, T. evansi; assay type: cell-based, Trypanosoma evansi; settings: for T. evansi RF: RF = EC50 (parasite)/EC50(s427 WT); for T. evansi SI: SI = EC50 (HEK)/EC50(parasite); for EC50: Trypanosoma evansi
[1] = test system: Trypanosoma congolense (IL3000); experiment: resazurin drug sensitivity assay, T. congolense; assay type: cell-based; settings: for T. congolense RF: RF = EC50 (parasite)/EC50(s427 WT); for T. congolense SI: SI = EC50 (HEK)/EC50(parasite)
T. equiperdum (BoTat1) = experiment: resazurin drug sensitivity assay, T. equiperdum; assay type: cell-based, Trypanosoma equiperdum; settings: for T. equiperdum RF: RF = EC50 (parasite)/EC50(s427 WT); for T. equiperdum SI: SI = EC50 (HEK)/EC50(parasite)
T. b. brucei B48 = experiment: microbe, parasite or virus in culture; assay type: cell-based, Trypanosoma brucei brucei; settings: for T. b. brucei B48 RF: RF = EC50 (parasite)/EC50(s427 WT); for T. b. brucei B48 SI: SI = EC50 (HEK)/EC50(parasite)
T. b. brucei s427 [2] = experiment: resazurin drug sensitivity assay, T. b. brucei s427 wild-type bloodstream forms; assay type: cell-based, Trypanosoma brucei brucei; settings: for T. b. brucei s427 SI: SI = EC50 (HEK)/EC50(parasite); for EC50: read-out: T. b. brucei s427 EC50
[3] = test system: Leishmania mexicana promastigotes; experiment: resazurin drug sensitivity assay, L. mexicana promastigotes; assay type: cell-based; settings: for L. mexicana SI: SI = EC50 (HEK)/EC50(parasite)
T. b. brucei s427 [4] = test system: T. b. brucei s427; set-up: method as in PMID 27313159; settings: cited from earlier work
[5] = test system: trypanosomes of the Trypanozoon subgenus (T. b. brucei, T. evansi and T. equiperdum); experiment: resazurin assay, summary over Trypanozoon subgenus trypanosomes; assay type: cell-based, Trypanosoma; settings: for EC50: Trypanosoma brucei, T. b. brucei s427, B48, T. evansi, T. equiperdum, read-out: EC50 values against trypanosomes of the Trypanozoon subgenus (range)
all trypanosome species = experiment: resazurin assay, summary over trypanosome species; assay type: cell-based, Trypanosoma
[6] = test system: kinetoplastid parasites (trypanosomes and L. mexicana); experiment: resazurin assay, summary of anti-kinetoplastid activity across the board; assay type: cell-based; settings: Leishmania mexicana, read-out: EC50, anti-kinetoplastid activity across the board (range)
macrophages RAW264.7 = test system: macrophages RAW264.7; set-up: method as in doi:10.3390/M1070; settings: normal cell lines; cited from earlier work
T. b. brucei s427 [7] = test system: T. b. brucei s427; set-up: method as in doi:10.3390/M1070; settings: read-out: EC50 against T. b. brucei s427; cited from earlier work
[8] = Trypanosoma congolense, average ± SEM
[9] = Trypanosoma equiperdum, average ± SEM
[10] = Trypanosoma brucei, read-out: T. b. brucei B48 EC50, multi-drug-resistant clone, average ± SEM
[11] = Leishmania mexicana, read-out: L. mexicana EC50, promastigotes, average ± SEM
[12] = printed in brackets beside the µg/mL value
[13] = Trypanosoma brucei, average ± SEM, at least three independent determinations
[14] = Leishmania mexicana, promastigotes, average ± SEM, read-out: L. mexicana EC50
[15] = a = EC50 of control for 1, 3, 4
[16] = b = EC50 of control for 5, 6, 7

Structure (SMILES) | EC50 (HEK 293 cells) | T. evansi RF (T. evansi (AnTat 3/3)) | T. evansi SI (T. evansi (AnTat 3/3)) | EC50 (T. evansi (AnTat 3/3); average ± SEM) | T. congolense RF [1] | T. congolense SI [1] | EC50 [1, 8] | T. equiperdum RF (T. equiperdum (BoTat1)) | T. equiperdum SI (T. equiperdum (BoTat1)) | EC50 (T. equiperdum (BoTat1); [9]) | T. b. brucei B48 RF (T. b. brucei B48) | T. b. brucei B48 SI (T. b. brucei B48) | EC50 (T. b. brucei B48; [10]) | T. b. brucei s427 SI (T. b. brucei s427 [2]) | EC50 (T. b. brucei s427 [2]; Trypanosoma brucei) | EC50 (T. b. brucei s427 [2]; [13]) | EC50 [3, 14] | also measured
COc1ccc(C(=O)C[C@H](O)c2c(O)cc(OC)cc2OC)cc1 [Compound 1, (S)-3-hydroxy-3-(2″-hydroxy-4″,6″-dimethoxyphenyl)-1-(4′-methoxyphenyl)propan-1-one] | > 300 µM | 1.3 | >6.5 | 46 ± 2.4 µM | 6.9 | >1.2 | 246 ± 5 µM | 0.60 | >14 | ~20 µM | 1.4 | >6.0 | 50.2 ± 15 µM | >8.5 | 35.5 ± 3.6 µM |  |  | toxicity to HEK 293 cells at the highest concentration tested (HEK 293 cells): non-toxic; EC50 (T. equiperdum (BoTat1); average ± SEM): 21.4 ± 3.9 µM; EC50 [3, 11]: 581 ± 3 µM
CC(=O)O[C@@H]1[C@H]2[C@H]3[C@H]([C@H](OC(C)=O)[C@H](OC(C)=O)[C@]2(C)[C@@H]2[C@@H]1[C@]1(C)C(=C[C@H]2C)OC(=O)[C@@]1(C)O)[C@]1(C)[C@H](C[C@@H]2O[C@@H]2[C@@H]1OC(C)=O)C(=O)[C@@H]3O [Compound 3, taccalonolide A] | > 143 µM | 1.0 | >2.2 | 66.3 ± 9.5 µM | 1.6 | >1.4 | 105 ± 41 µM | 0.86 | >2.6 | 55.8 µM | 0.7 | >3.1 | 45.4 ± 4.1 µM | >2.2 |  | 64.7 ± 21.2 µM | > 285 µM | activity against T. b. brucei s427 (T. b. brucei s427 [4]): 11.42 µg/mL; activity against T. b. brucei s427 (T. b. brucei s427 [4]; [12]): 16.3 µM; EC50 [5]: 45.4 to 66.3 µM; RF (cross-resistance) with B48, T. evansi and T. equiperdum ([5]; relative to s427): ≤ 1; L. mexicana EC50 ([3]; promastigotes, average ± SEM): low activity
CCC(=O)O[C@H]1[C@@H](OC(C)=O)[C@H]2[C@H]([C@@H]3[C@@H](OC(C)=O)[C@@H]4[C@H]([C@H](C)C=C5OC(=O)[C@@](C)(O)[C@@]54C)[C@]31C)[C@@H](O)C(=O)[C@H]1C[C@@H]3O[C@@H]3[C@H](OC(C)=O)[C@]21C [Compound 4, Taccalonolide A 12-propanoate] | > 140 µM | 1.6 | >1.7 | 82.7 ± 7.4 µM | >2.8 |  | > 140 µM | 1.5 | >1.8 | 77.7 ± 10.5 µM | 1.4 | >1.9 | 75.1 ± 12.3 µM | >2.6 |  | 53.4 µM | > 280 µM | activity against T. b. brucei s427 (T. b. brucei s427 [4]): 3.13 µg/mL; activity against T. b. brucei s427 (T. b. brucei s427 [4]; [12]): 4.6 µM; EC50 (T. b. brucei s427 [2]; average ± SEM, at least three independent determinations): 53.3 ± 8.6 µM; L. mexicana EC50 ([3]; promastigotes, average ± SEM): low activity
CC(=O)O[C@H]1CC[C@]2(C)[C@H]3CC[C@]4(C)C(=CC[C@@]5(C)CCC(C)(C)C[C@H]54)[C@]3(C)CC[C@H]2C1(C)C [Compound 5, taraxerol acetate] | > 427 µM | 0.4 | >6.8 | 62.9 ± 1.5 µM | 1.1 |  | 178 ± 14 µM | 0.13 | >20 | ~20 µM | 0.75 | >3.4 | 128 ± 5 µM | >3.1 | 138 ± 61 µM |  |  | toxicity to HEK 293 cells at the highest concentration tested (HEK 293 cells): not toxic; EC50 (T. equiperdum (BoTat1); average ± SEM): 21.3 ± 0.3 µM; EC50 (all trypanosome species; Trypanosoma equiperdum, all but T. equiperdum, read-out: EC50 against most trypanosome species): > 60 µM; EC50 [3, 11]: > 427 µM
COc1ccc2c(c1OC)CN(C)c1c-2ccc2cc3c(cc12)OCO3 [Compound 6, dihydrochelerythrin] | 94.4 ± 23.2 µM | 0.8 | 87 | 1.09 ± 0.06 µM | 6.0 | 11.4 | 8.3 ± 0.57 µM | 2.2 | 30.4 | 3.09 ± 0.52 µM | 1.8 | 37.0 | 2.56 µM | 68.0 |  | 1.37 ± 0.43 µM | 5.4 ± 0.6 µM | EC50 [6]: 1.4 to 8.3 µM; EC50 (T. b. brucei B48; read-out: T. b. brucei B48 EC50, multi-drug-resistant clone, average ± SEM): 2.55 ± 0.29 µM; EC50 [5]: 1.37 to 3.09 µM; L. mexicana SI [3]: 18; EC50 ([3]; promastigotes, average ± SEM, read-out: L. mexicana EC50): 5.44 ± 0.57 µM
CC(C)CNC(=O)/C=C/c1ccc2c(c1)OCO2 [Compound 7, fagaramide] | 364 ± 44 µM | 0.6 | 33.0 | 10.9 ± 0.4 µM | 1.9 | 10.6 | 34.4 ± 5.7 µM | 1.5 | 13.4 | 27.1 ± 0.1 µM | 0.6 | 33.8 | 10.9 ± 0.4 µM | 20.4 | 17.8 ± 7.3 µM |  | 13.3 ± 0.4 µM | EC50 [6]: 10.9 to 34.4 µM; EC50 (all trypanosome species; Trypanosoma, read-out: EC50 against all trypanosome species (range)): 10.9 to 34.4 µM; EC50 (macrophages RAW264.7): 215 µM; L. mexicana SI [3]: 27; EC50 (T. b. brucei s427 [7]): 7.3 µM
N=C(N)c1ccc(N=NNc2ccc(C(=N)N)cc2)cc1 [DA, diminazene aceturate, reference compound] |  |  |  |  |  |  |  |  |  |  |  |  |  |  |  |  |  | EC50 [1, 15]: 0.51 µM; EC50 [1, 16]: 0.46 µM
N=C(N)c1ccc(OCCCCCOc2ccc(C(=N)N)cc2)cc1 [PMD, pentamidine isethionate, reference compound] |  |  |  |  |  |  |  |  |  |  | approximately 50 |  |  |  |  |  |  | EC50 (T. evansi (AnTat 3/3); [15]): 0.016 µM; EC50 (T. evansi (AnTat 3/3); [16]): 0.0025 µM; EC50 (T. equiperdum (BoTat1); Trypanosoma equiperdum, a = EC50 of control for 1, 3, 4): 0.0081 µM; EC50 (T. equiperdum (BoTat1); Trypanosoma equiperdum, b = EC50 of control for 5, 6, 7): 0.0033 µM; EC50 (T. b. brucei B48; Trypanosoma brucei, read-out: T. b. brucei B48 EC50, a = EC50 of control for 1, 3, 4): 0.312 µM; EC50 (T. b. brucei B48; Trypanosoma brucei, read-out: T. b. brucei B48 EC50, b = EC50 of control for 5, 6, 7): 0.288 µM; T. b. brucei B48 RF (T. b. brucei B48; a = control for 1, 3, 4): 47.3; T. b. brucei B48 RF (T. b. brucei B48; b = control for 5, 6, 7): 55.4; EC50 (T. b. brucei s427 [2]; Trypanosoma brucei, a = EC50 of control for 1, 3, 4): 0.0066 µM; EC50 (T. b. brucei s427 [2]; Trypanosoma brucei, b = EC50 of control for 5, 6, 7): 0.0052 µM; EC50 ([3]; Leishmania mexicana, a = EC50 of control for 1, 3, 4, read-out: L. mexicana EC50): 1.1 µM; EC50 ([3]; Leishmania mexicana, b = EC50 of control for 5, 6, 7, read-out: L. mexicana EC50): 0.76 µM

From paper PMC12156181, “Antitrypanosomal and Antileishmanial Activities of Tacca leontopetaloides Tubers and Zanthoxylum zanthoxyloides Stem Bark” (Molecules, 2025)
